Results published in patent US20210401863A1, “TREATMENT AND PREVENTION OF NEISSERIA GONORRHOEAE INFECTION USING CMP-ACTIVATED NONULOSONATE ANALOG COMPOUNDS” (NATIONAL RESEARCH COUNCIL OF CANADA, priority 2015, published 2021).
Like-named read-outs stand apart in the source and are kept apart here.

Tests used:
N. gonorrhoeae F62 ΔlgtD [1] = settings: from U.S. patent application Ser. No. 14/627,396; cited from earlier work
[2] = target: T1, gonococcal LOS sialyltransferase (Lst) (Neisseria gonorrhoeae, UniProt P72074); settings: from U.S. patent application Ser. No. 14/627,396; cited from earlier work
T1 construct: CMP-KDN served as a substrate for gonococcal Lst in the context of live bacteria; endogenous in cells; host or cells: N. gonorrhoeae F62 ΔlgtD (live bacteria)
T1 sequence (P72074 whole entry): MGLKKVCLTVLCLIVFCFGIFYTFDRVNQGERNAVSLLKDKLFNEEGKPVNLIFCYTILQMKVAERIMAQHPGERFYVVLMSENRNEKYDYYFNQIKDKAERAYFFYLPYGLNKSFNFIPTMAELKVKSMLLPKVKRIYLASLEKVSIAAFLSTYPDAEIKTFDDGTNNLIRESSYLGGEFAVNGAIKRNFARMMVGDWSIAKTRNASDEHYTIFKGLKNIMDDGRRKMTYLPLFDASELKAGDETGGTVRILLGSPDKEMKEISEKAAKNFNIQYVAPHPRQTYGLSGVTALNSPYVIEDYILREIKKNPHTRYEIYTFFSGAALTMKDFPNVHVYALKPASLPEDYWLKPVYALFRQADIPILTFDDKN

purified human FH = settings: from U.S. Pat. No. 9,765,106 / Ser. No. 14/627,396; cited from earlier work
N. gonorrhoeae H041 = experiment: BALB/c mouse vaginal colonization model; type: in vivo; settings: 10 μg intravaginally daily; Premarin treated BALB/c mice
Method: FIG. 2: Female BALB/c mice 5-6 weeks of age (Jackson Laboratories) in the diestrus phase of the estrous cycle were started on treatment (that day) with 0.5 mg of Premarin (Pfizer) given subcutaneously on each of three days; −2, 0 and +2 days (before, the day of and after inoculation) to prolong the estrus phase of the cycle and promote susceptibility to N. gonorrhoeae infection. Antibiotics (vancomycin, colistin, neomycin, trimethoprim and streptomycin) that were ineffective against N. gonorrhoeae were also used to reduce competitive microflora. Mice (n=40) were then infected with 10^6 CFU of strain H041. Three groups of mice (n=10/group) were treated with 10 μg intravaginally daily (first dose was administered 30 minutes before the introduction of bacteria) with one of the following CMP-NulOs in normal saline: CMP-Leg5Ac7Ac, CMP-Neu5Ac9Az or CMP-KDN. A fourth group (n=10) was given saline (vehicle control). Vaginal swabs were obtained daily from each animal, serially diluted and plated on chocolate agar containing vancomycin, colistin, neomycin, trimethoprim and streptomycin (VCNTS) to quantify bacterial loads. A. Median time to clearance was estimated using Kaplan-Meier survival curves; the times to clearance were compared between groups using a log-rank test. P<0.0001 for the control versus each of the treatment groups. Time to clearance between each of the treatment groups was similar (P>0.05). B. The mean area under the curve (log10 CFU vs. time) was computed for each mouse to estimate the bacterial burden over time (cumulative infection); the means under the curves were compared between groups using the Kruskal-Wallis nonparametric rank sum test because distributions were skewed or kurtotic. Groups were compared using Dunn's multiple comparison test. ****, P<0.0001; **, P<0.01; *, P<0.05. The differences among the groups that received CMP-NulOs were not significant.
The mouse model experiments and statistical analysis were conducted as described in the art and in U.S. Pat. No. 9,765,106. […]

N. gonorrhoeae F62 ΔlgtD [3] = type: cell-based, Neisseria gonorrhoeae; settings: for % survival in 3.3% serum / % survival in 10% serum: Table 5
Method: Generally, bacteria (F62 ΔlgtD) grown overnight on chocolate agar plates were suspended in gonococcal liquid media supplemented with IsoVitaleX [29] that contained specified concentrations of the CMP-nonulosonate. Bacteria were then incubated at 37° C. for the period specified in each experiment.
Serum bactericidal assays were performed as follows, similar to methods outlined in [32,33] and in U.S. Pat. No. 9,765,106. Bacteria were harvested from an overnight culture on chocolate agar plates and ˜10^5 CFU of Ng were grown in liquid media containing the concentrations of CMP-NuIO as specified for each experiment. Bacteria were diluted in Morse A and ˜2000 CFU of Ng F62 ΔlgtD were incubated with NHS (concentration specified for each experiment). The final reaction volumes were maintained at 150 μL. Aliquots of 25 μL of reaction mixtures were plated onto chocolate agar in duplicate at the beginning of the assay (t0) and again after incubation at 37° C. for 30 minutes (t30). Survival was calculated as the number of viable colonies at t30 relative to t0.
Addition of a terminal Neu5Ac residue to the LNnT LOS of N. gonorrhoeae that occurs in vivo or following the addition of CMP-Neu5Ac to growth media results in resistance to complement-dependent killing. We next determined the effects of LNnT incorporation of KDN on the ability of N. gonorrhoeae F62 ΔlgtD to resist complement-dependent killing by normal human sera at concentrations of 3.3% or 10%. Bacteria were grown either in media alone, or media supplemented with 20 μg/mL of CMP-Neu5Ac or CMP-KDN. In addition, CMP-NulO competition experiments were also performed with CMP-Neu5Ac, CMP-Leg5Ac7Ac and CMP-KDN at CMP-NulO concentrations of either 20 μg/mL or 2 μg/mL as indicated, where the second CMP-NulO was added 15 minutes after the first (Table 1 below). To note, these CMP-NulO competition experiments are a method to examine the ability of select CMP-NulOs to counter the enhanced serum resistance due to CMP-Neu5Ac addition, providing information on their therapeutic potential (as any potential therapeutic will be required to compete with CMP-Neu5Ac in vivo).

[4] = target: T1, gonococcal LOS sialyltransferase (Lst); experiment: mAb 3F11 binding by flow cytometry (incorporation of NulO on LNnT LOS by Lst); type: cell-based, N. gonorrhoeae F62 ΔlgtD; settings: F62 ΔlgtD grown in media with 20 μg/mL CMP-NulO
Method: FIG. 1: CMP-KDN serves as a substrate for gonococcal LOS and incorporation of KDN on gonococcal lacto-N-neotetraose LOS enhances factor H (FH) binding. A. Incorporation of KDN by gonococci. Gonococcal strain F62 ΔlgtD (expresses lacto-N-neotetraose (LNnT) from Hepl) was grown in media containing CMP-KDN (20 μg/mL) and binding of mAb 3F11 was measured by flow cytometry. mAb 3F11 binds only to […] LNnT; substitution of the terminal Gal of LNnT, for example with a NulO, will decrease mAb 3F11 binding. Approximately 5×10^7 bacteria were incubated with mAb 3F11 tissue culture supernatants for 15 minutes at 37° C. Binding of mAb 3F11 was disclosed with anti-mouse IgM FITC (Sigma; dilution of 1:100). Bacteria grown in CMP-Neu5Ac or in media alone were used as positive and negative controls for sialylation, respectively. A representative histogram is shown in the upper panel. […] B. Factor H (FH) binding to gonococci grown in CMP-KDN. Approximately 5×10^7 bacteria grown in media alone (no sialic acid), media plus CMP-Neu5Ac (20 μg/mL; positive control for FH binding) or in media containing CMP-KDN (20 μg/mL) were incubated with purified human FH (20 μg/mL) in HBSS** for 15 minutes at 37° C. and bound FH was detected with affinity isolated goat anti-human FH followed by anti-goat IgG FITC (Sigma; 1:100 dilution). A representative histogram is shown in the upper panel.
FIG. 3: CMP-KDN7N3 serves as a substrate for gonococcal Lst resulting in incorporation of KDN7N3 on gonococcal lacto-N-neotetraose (LNnT) LOS—Incorporation of KDN7N3 by gonococci. Gonococcal strain F62ΔlgtD (expresses lacto-N-neotetraose (LNnT) from Hepl) was grown in media containing CMP-KDN7N3 (20 μg/mL) and binding of mAb 3F11 was measured by flow cytometry. mAb 3F11 binds only to […] LNnT; substitution of the terminal Gal of LNnT, for example with a NulO, will decrease mAb 3F11 binding. Approximately 5×10^7 bacteria were incubated with mAb 3F11 tissue culture supernatants for 15 minutes at 37° C. Binding of mAb 3F11 was disclosed with anti-mouse IgM FITC (Sigma; dilution of 1:100). […]

| SMILES | serum resistance / serum-mediated killing (earlier results) (N. gonorrhoeae F62 ΔlgtD [1]) | substrate for gonococcal LOS sialyltransferase (Lst) (earlier results) [2] | fH binding to bacteria (earlier results) (purified human FH) | attenuation of N. gonorrhoeae H041 infection (N. gonorrhoeae H041) | serum sensitivity (in words) (N. gonorrhoeae F62 ΔlgtD [3]; CMP-NulO alone, 10% serum) | % survival in 3.3% serum (N. gonorrhoeae F62 ΔlgtD [3]; CMP-NulO 20 μg/mL) [%] | % survival in 10% serum (N. gonorrhoeae F62 ΔlgtD [3]; CMP-NulO 20 μg/mL, 10% serum) [%] | % survival in 3.3% serum (N. gonorrhoeae F62 ΔlgtD [3]; CMP-NulO 100 μg/mL) [%] | % survival in 10% serum (N. gonorrhoeae F62 ΔlgtD [3]; CMP-NulO 100 μg/mL, 10% serum) [%] | binding of mAb 3F11 (use as substrate by gonococcal Lst) [4] |
| --- | --- | --- | --- | --- | --- | --- | --- | --- | --- | --- |
| CC(=O)NC1C(O)CC(OP(=O)(O)OCC2OC(n3ccc(N)nc3=O)C(O)C2O)(C(=O)O)OC1C(O)C(O)COC(C)=O (stereo not drawn) [CMP-Neu5Ac9Ac] | enhanced serum-mediated killing | can serve as substrates for gonococcal LOS sialyltransferase (Lst) |  |  |  |  |  |  |  |  |
| CO[C@H](CO)[C@@H](O)[C@@H]1O[C@@](OP(=O)(O)OC[C@H]2O[C@@H](n3ccc(N)nc3=O)[C@H](O)[C@@H]2O)(C(=O)O)C[C@H](O)[C@H]1NC(=O)CO [CMP-Neu5Gc8Me] | enhanced serum-mediated killing | can serve as substrates for gonococcal LOS sialyltransferase (Lst) | not enhance fH binding above levels seen with an unsialylated F62 ΔlgtD control |  |  |  |  |  |  |  |
| Nc1ccn([C@@H]2O[C@H](COP(=O)(O)O[C@@]3(C(=O)O)C[C@H](O)[C@@H](NC(=O)CO)[C@H]([C@H](O)[C@H](O)CO)O3)[C@@H](O)[C@H]2O)c(=O)n1 [CMP-Neu5Gc] | able to simulate the high-level serum resistance reported for CMP-Neu5Ac | can serve as substrates for gonococcal LOS sialyltransferase (Lst) | high level of fH binding to bacteria |  |  |  |  |  |  |  |
| CC(=O)N[C@H]1[C@H]([C@H](O)[C@H](O)CN=[N+]=[N-])OC(OP(=O)(O)OC[C@H]2O[C@@H](n3ccc(N)nc3=O)[C@H](O)[C@@H]2O)(C(=O)O)C[C@@H]1O (stereo partly drawn) [CMP-Neu5Ac9Az] | enhanced serum-mediated killing | can serve as substrates for gonococcal LOS sialyltransferase (Lst) | not enhance fH binding above levels seen with an unsialylated F62 ΔlgtD control | significantly attenuated |  |  |  |  |  |  |
| [N-]=[N+]=N[C@@H](C1O[C@](OP(=O)(O)OC[C@H]2O[C@@H](n3ccc(N)nc3=O)C(O)C2O)(C(=O)O)CC(O)[C@H]1O)[C@H](O)CO (stereo partly drawn) [CMP-KDN7N3, cytidine 5′-monophospho-3,7-dideoxy-7-azido-D-glycero-D-galacto-nonulosonic acid] |  |  |  |  | resulted in serum sensitivity | 125.60 | 33.92 | 123.67 | 22.52 | could be utilized by gonococcal LOS sialyltransferase (Lst) |
